From patent US20230092005A1, “COMPOSITIONS AND METHODS FOR TREATING CANCER AND TUMOR” (OBLATO, INC., priority 2020, published 2023)

Columns and labels:
[1] = Solubility in water; assay type: physicochemical; details: free acid
Description: In certain embodiments, the 2,4-ds-PBN can be prepared by a two-step reaction sequence. For example, tertiary butyl […] (2-methyl-2-nitropropane) can be converted to the corresponding n-hydroxylamine using a suitable catalyst such as an activated zinc/acetic acid catalyst or an aluminum/mercury amalgam catalyst. This reaction can be carried out in about 0.5 to 12 hours and especially about 2 to 6 hours or so at a temperature of about 15-100° C. in a liquid reaction medium such as alcohol/water mixture in the case of the zinc catalyst or an ether/water mixture in the case of the aluminum amalgam catalyst. The freshly formed hydroxylamine can be reacted with 4-formyl-1,3-benzenedisulfonic acid, with a slight excess of the amine being used. This reaction can be carried out at similar temperature conditions. This reaction can be completed in from about 10 to about 24 hours. The formed material through the two reactions can be the free acid and be characterized by a molecular weight of 337.3 g/mole. In some embodiments, the formed material can be a white powdery material that decomposes upon heating. In non-limiting embodiments, the formed material can be characterized by solubility in water of greater than 1 gram/ml and a^1H NMR spectrum in D2O of 8.048 ppm (dd, 8.4, 1.7 Hz); 8.836 ppm (d, 8.4 Hz); 8.839 ppm (d, 1.7 Hz); 8.774 ppm (s).

[2] = test system: human A549 lung cancer xenografts; test: Hematoxylin & Eosin (H&E) staining of extracted A549 xenograft tumors (necrosis grading); assay type: in vivo, BALB/c Nude mouse
From the text: Histopathological test: The extracted tumors were fixed in 10% neutral buffered formalin solution (10% neutral buffered formalin). After sectioning the tumors to a certain thickness (about 3 mm), those were subjected to the general preparation procedure, embedded in paraffin, cut into 4 to 5 μm size, and tissue sections were stained with Hematoxylin and Eosin (H&E) and TUNEL. IHC (Immunohistochemistry) slides, cut into 4 to 5 μm size, were produced and sent to the sponsor (Negative Control Group (G1), Test substance 2 (G3, Animal ID Nos.: 1301, 1302, 1303, 1307, 1310), Test substance 3 (G4, Animal ID Nos.: 1401, 1402, 1404, 1408, 1409)). Determination of Hematoxylin & Eosin (H&E) staining results: Necrosis of tumors was assessed by grading (±, +, ++, +++, ++++) the extent of necrosis in the whole section of the tumor. Necrosis was evaluated by morphological changes such as collapse or disappearance of the nucleus and eosinophilic change of cytoplasm. The extent of tumor necrosis was determined by the percentage of the following necrosis area. Histopathological test (Table 7, FIGS. 7-11): The extracted fixed tumor was cut to a certain thickness (about 3 mm), then subjected to general tissue treatment, paraffin-embedded to produce blocks, and tissue sections of 4 to 5 μm in size were prepared. Then, Hematoxylin & Eosin (H&E) staining and TUNEL staining were performed.

[3] = test system: human A549 lung cancer xenografts; test: TUNEL staining of extracted A549 xenograft tumors (apoptosis counting and grading); assay type: in vivo, BALB/c Nude mouse; details: for Apoptosis counting No. (group mean ± S.D.): TUNEL positive cells per 1 mm^2; for Number of apoptotic cells in the tumor compared to the negative control group (G1): G5, 2 mg/kg, TUNEL
From the text: Histopathological test: The extracted tumors were fixed in 10% neutral buffered formalin solution (10% neutral buffered formalin). After sectioning the tumors to a certain thickness (about 3 mm), those were subjected to the general preparation procedure, embedded in paraffin, cut into 4 to 5 μm size, and tissue sections were stained with Hematoxylin and Eosin (H&E) and TUNEL. IHC (Immunohistochemistry) slides, cut into 4 to 5 μm size, were produced and sent to the sponsor (Negative Control Group (G1), Test substance 2 (G3, Animal ID Nos.: 1301, 1302, 1303, 1307, 1310), Test substance 3 (G4, Animal ID Nos.: 1401, 1402, 1404, 1408, 1409)). Determination of TUNEL staining results: After histological examination of the entire cross-section of the tumor for grading (±, +, ++, +++, ++++) of apoptosis, the nucleated brown stained cells were read as […] was counted. The apoptosis of the tumor was determined by the number of positive cells per […] (1 mm^2). The apoptosis of the tumor was determined by calculating the average number of positive cells and graded into the corresponding severity. The number of positive cells in which apoptosis occurred was determined by counting the number of positive cells per unit area (1 mm^2). Histopathological test (Table 7, FIGS. 7-11): The extracted fixed tumor was cut to a certain thickness (about 3 mm), then subjected to general tissue treatment, paraffin-embedded to produce blocks, and tissue sections of 4 to 5 μm in size were prepared. Then, Hematoxylin & Eosin (H&E) staining and TUNEL staining were performed.

[4] = test system: human A549 lung cancer xenografts; test: Anti-cancer efficacy in nude mice carrying human A549 lung cancer xenografts (tumor volume, tumor weight, growth inhibition rate); assay type: in vivo, BALB/c Nude mouse; details: for Tumor volume (mean): G5, 2 mg/kg I.P. once a week
Description: The anti-cancer efficacy of OKN-007 was assessed after oral administration in nude mice carrying human A549 lung cancer xenografts implanted subcutaneously in the flank. Human lung cancer cell line, A549 was used. […] The frozen cells were thawed in a water bath. Cells were placed in a tube containing the medium and centrifuged (1,000 rpm, 5 minutes) to discard the supernatant. After re-suspending with the culture medium, cells were placed in a cell culture flask and incubated in a 5% CO2 incubator at 37° C. Cells were sub-cultured at a ratio of 1:5 when grown with confluency of 70-80% in the culture container. Cells cultured on the day of cell line transplantation were centrifuged (1,000 rpm, 5 minutes) to discard the supernatant and to make cell suspension with D-PB S. Then, the cell suspension was mixed with Matrigel at a ratio of 1:1 (5×10^7 cells/mL). BALB/c Nude mouse, [NT]-Foxnlnu/CrlOri, SPF was used. Sex, number, age, and body weight range of animals at receipt: The mice (65 mice) were male, 5 weeks old, and had about 14.5-19.6 g weight at the receipt. Cell transplantation: After the quarantine-acclimation period, the body weight measurement and cell transplantation in healthy animals were performed. […] Prepared cell (1×10^7 cells/0.2 mL) suspension was injected subcutaneously into the right flank with disposable syringes. […] Group assignment: After transplanting cells, each tumor size was monitored for 65 animals. When tumor volume reached within 87-112 mm^3, 50 animals were assigned to the respective groups with an average tumor volume of about 99 mm^3. Based on the tumor volume, animals were selected and randomly distributed into 5 groups (10 animals/group). Dosing Route: Oral administration. The route of administration was oral because the clinical application of the test substance is oral. Method and frequency of administration: For negative control and test substance, oral administration was performed once a day for 4 weeks for a total of 28 times using a disposable syringe. For positive control, intraperitoneal administration was performed once a week for 4 weeks for a total of 4 times using a disposable syringe. Dosing Route: The dose levels of the test substance were selected at 150, 300, and 600 mg/kg. The dose level of the positive substance was selected at 2 mg/kg. The dose volume was selected at 10 mL/kg for all groups, and the individual dose was calculated based on the bodyweight of animals just prior to dosing. Measurement of tumor volume: The largest diameter (a) and the smallest diameter (b) of each tumor were measured using calipers twice a week during the observation period. The tumor volume (TV) was calculated twice a week according to the following formula: TV (mm^3)=(a (mm)×b^2 (mm^2))/2. The volume of a tumor before administration to each animal was set to the value measured at the time of group assignment. Tumor removal and measurement of body weight: After the observation period, animals were anesthetized by inhalation of isoflurane. After the tumor was extracted, the weight of the removed tumor was recorded. The tumor growth inhibition rate (IR) was calculated using the following formula: IR (%)=(1-T/C)×100, where T is a mean tumor weight in the test substance group, and positive substance group, and C is a mean tumor weight in the negative control group.

Structure (SMILES): CC(C)(C)/[N+]([O-])=C\c1ccc(S(=O)(=O)O)cc1S(=O)(=O)O [2,4-ds-PBN, 2,4-disulfonyl a-phenyl tert-butyl nitrone]
- solubility [1]: > 1000 mg/mL

Structure (SMILES): N.N.[Cl][Pt][Cl] [cisplatin, Cis-Diammineplatinum (II) dichloride, reference compound]
- Necrosis grade + : number of animals ([2]; G5, 2 mg/kg I.P., N=10): 2
- Necrosis grade ++ (moderate): number of animals ([2]; G5, 2 mg/kg I.P., N=10): 2
- Necrosis grade +++ (marked): number of animals ([2]; G5, 2 mg/kg I.P., N=10): 0
- Necrosis grade ++++ (severe): number of animals ([2]; G5, 2 mg/kg I.P., N=10): 0
- Necrosis grade ± (minimal): number of animals ([2]; G5, 2 mg/kg I.P., N=10): 6
- Severity of necrosis compared to the negative control group (G1) ([2]; G5, 2 mg/kg, H&E): does not significantly different
- Apoptosis grade + : number of animals ([3]; G5, 2 mg/kg I.P., N=10): 2
- Apoptosis grade ++ (moderate): number of animals ([3]; G5, 2 mg/kg I.P., N=10): 0
- Apoptosis grade +++ (marked): number of animals ([3]; G5, 2 mg/kg I.P., N=10): 0
- Apoptosis grade ++++ (severe): number of animals ([3]; G5, 2 mg/kg I.P., N=10): 0
- Apoptosis grade ± (minimal): number of animals ([3]; G5, 2 mg/kg I.P., N=10): 8
- Apoptosis counting No. (group mean ± S.D.) ([3]; G5, 2 mg/kg I.P.): 87.5 ± 50.6 No./mm^2
- Apoptosis counting No. (group mean ± S.D.) ([3]; G5, 2 mg/kg I.P., listed as Cisplatin): 87.5±50.6 No./mm^2
- Number of apoptotic cells in the tumor compared to the negative control group (G1) [3]: significant increase in the number of apoptotic cells
- Number of apoptotic cells in the tumor compared to the negative control group (G1) ([3]; listed as Cisplatin): no statistically significant difference
- Tumor weights (mean) ([4]; G5, 2 mg/kg I.P. once a week for 4 weeks, tumors weighed at day 29): 0.37 g
- Tumor volume (mean) ([4]; day 1 (before administration)): 99 mm^3
- Tumor volume (mean) ([4]; day 5 after administration): 152 mm^3
- Tumor volume (mean) ([4]; day 8 after administration): 171 mm^3
- Tumor volume (mean) ([4]; day 12 after administration): 176 mm^3
- Tumor volume (mean) ([4]; day 15 after administration): 199 mm^3
- Tumor volume (mean) ([4]; day 19 after administration): 250 mm^3
- Tumor volume (mean) ([4]; day 22 after administration): 314 mm^3
- Tumor volume (mean) ([4]; day 26 after administration): 385 mm^3
- Tumor volume (mean) ([4]; day 29 after administration): 481 mm^3
- Tumor growth inhibition rate (IR) ([4]; G5, 2 mg/kg I.P., IR=(1-T/C)x100 from mean tumor weights, day 29): 59.8%
- Tumor volume and size compared to the negative control ([4]; G5, 2 mg/kg, end of the observation period): statistically significant decrease in tumor volume and size
